Data reported in patent US5273991A, “Imidazole-containing compositions and methods of use thereof analogs of distamycin” (Research Corporation Technologies, Inc., priority 1992, dated 1993).

Legend:
Format in all cases: binding
T4 coliphage DNA = experiment: ethidium displacement assay, T4 coliphage DNA; settings: ± 0.02 × 10^5 M^-1, pH 7.4
Source text: (§1) The ethidium displacement assay is based on the fact that ethidium binding to DNA causes a large (approximately 25 fold) florescence enhancement as a result of the hydrophobic environment surrounding the ethidium molecule. Displacement of ethidium results in decreased fluorescence, and thus binding constants of drugs to DNA can be estimated and compared by measuring the loss of fluorescence as a function of added drug. The drug concentration which produces 50% inhibition of florescence is approximately inversely proportional to the apparent binding constant.
The apparent binding constants for T4 coliphage DNA are an indicator of the minor groove selectivity of the compounds of the present invention. The major groove of T4 coliphage DNA is blocked by α-glycosylation of the 5-hydroxymethylcytidine residues; therefore, the non-intercalating agents that bind to T4 coliphage DNA must interact in the minor groove [Lown (1982) Acc. Chem. Res., 15, 381].
(§2) The relative DNA binding constants (Kapp) of distamycin and Compounds 6-10 to calf thymus DNA, T4 coliphage DNA, poly(dAdT) and poly(dGdC) were determined using the ethidium displacement assay (Morgan et al., 1979). The Kapp of ethidium bromide (Debart et al., 1989) is included for comparison. 25 μL of a 2A260 DNA solution was added to 2 mL of ethidium bromide buffer (250 μL of 1.3 mM ethidium bromidestock, 314.9 mg Tris-HCl, 60.8 mg Tris base and 930/mg of Na2 EDTA.2H2 O in 250 ml H2 O) pH 7.4 and the maximum fluorescence was measured (excitation wavelength=546 nm, emission wavelength=600 nm) at ambient temperature.
(§3) DNA solutions of 2A260 were prepared as follows: T4 coliphage DNA: 10 units of DNA were dissolved in 1 mL of 10 mM sodium phosphate (pH 7.1) and 0.25 mM EDTA buffer to give a 10A260 solution. 0.3 mL of the stock solution were diluted to 1.5 mL with 10 mM sodium phosphate (pH 7.1) and 0.25 mM EDTA buffer to give a 2A260 solution. Calf thymus DNA: 100 units of DNA were dissolved in 5 mL of 10 mM sodium phosphate (pH 7.1) and 0.25 mM EDTA buffer to give a 20A260 solution. 1.5 mL of the stock solution were diluted to 15 mL with 10 mM sodium phosphate (pH 7.1) and 0.25 mM EDTA buffer to give a 2A260 solution. Poly(dA-dT) and Poly(dG-dC) DNA: 100 units of DNA were dissolved in 10 mL of 10 mM sodium phosphate pH 7.1) and 0.25 mM EDTA buffer to give a 10A260 solution. 3 mL of the stock solution were diluted to 15 mL with 10 mM sodium phosphate (pH 7.1) and 0.25 mM EDTA buffer to give a 2A260 solution.
(§4) Aliquots of 10 mM stock drug solution (1 mg of drug to be tested was dissolved with 1 mole equivalent of 0.1M HCl, and then diluted with appropriate volume of distilled water to make a 10 mM solution) were then added to the fluorescing solution and the florescence measured after each addition until a 50% reduction of fluorescence occurred. If the 10 mM stock solution lowered the % fluorescence too quickly, the stock solution was further diluted to 1 mM prior to titration. The apparent binding constant was then calculated from this equation: KEtBr [EtBr]=Kapp [drug], where [drug]=the concentration of drug at a 50% reduction of fluorescence and KEtBr [1×10^7 M^-1 for calf thymus and coliphage T4 DNA^18, 9.5×10^6 M^-1 for poly(dA.dT)^30, and 9.9×10^6 M^-1 for poly(dG.dC)^30 ] and [EtBr] were known. The concentration of ethidium bromide was 1.3 μM. The Kapp values are shown in Table I. In a separate experiment, the Kapp of Compound 5 for calf thymus DNA and poly[dGdC] were determined to be 0.3×10^5 M^-1 and 2.6×10^5 M^-1, respectively. The error in these measurements is ±[…].

[1] = test system: DNAs [calf thymus, poly(dA dT) and poly(dG dC)]; experiment: circular dichroism (CD) titration, DNAs together; settings: for drug-induced CD bands, wavelength: drugs alone do not exhibit any CD spectra
Experimental: The DNA binding properties of the present compounds were assessed by circular dichroism (CD) titration experiments. Methods for CD titration can be found, for example, in Zimmer et al. (1986) Prog. Biophys. Molec. Biol 47, 31. The conformation of DNA can be readily determined by CD experiments, and for B-DNA, characteristic positive and negative Cotton effects are observed at 260 and 245 nm, respectively.
The interaction of Compounds 6-10 to a number of DNAs [calf thymus, poly(dA dT) and poly(dG dC)] were analyzed by CD titration studies. All the CD titration experiments were performed using identical procedures, concentrations of DNA, and increments of drug:DNA ratios (or `r`, i.e. moles of drug to moles of DNA base pairs). Therefore, the differences observed in the CD spectra for the titration of each of the compounds to the polydeoxynucleotides may be directly compared to reflect their DNA binding properties.
All experiments were performed with a continuous flow of nitrogen purging the polarimeter. A 1 mm path length jacketed cell was used and all experiments were done at room temperature. Initially, DNA [0.02 μ moles (base pairs), 130 μL] was placed in the cell and the spectrum of the DNA alone was collected. Aliquots of drug were added and the spectra collected. The drug solutions were 1 mM and amounts of the drug added correspond to a drug to base pair ratio of 0.05, 0.10, 0.15, 0.20, 0.25, 0.30, 0.40, 0.50, 0.60, 0.80, 1.00. The scan parameters were set and standard for all experiments. The spectra were collected from 400 nm to 200 nm. The sensitivity was set at 1 mdeg and the scan speed was set at 20 nm per minute. Three scans were accumulated and automatically averaged by the computer. The λmax and ellipticity (mdeg) for each spectrum were collected from the raw scans and the final plots were smoothed by the noise reduction program on the computer. […] The induced CD band is presumably due to the uv absorption π to π^* transition of the drug in the drug:DNA complex. […] Therefore interaction of these drugs with DNA causes only minor conformational changes in the double helix.

poly(dGdC) = experiment: ethidium displacement assay, poly(dGdC); settings: poly(dGdC); ± 0.02 × 10^5 M^-1; pH 7.4
Source text: as §1, §2, §3, §4

| SMILES | Association constant Kapp (T4 coliphage DNA) [M⁻¹] | drug-induced CD bands, wavelength [1] | Association constant Kapp (poly(dGdC)) [M⁻¹] | CD titration result in words ([1]; three polydeoxyribonucleotides, r' up to 0.8) | binding preference from CD titration ([1]; induced band for poly(dG.dC) vs poly(dA.dT)) |
| --- | --- | --- | --- | --- | --- |
| CN(C)CCNC(=O)c1nc(NC(=O)c2nc(NC(=O)c3ccc(N(CCCl)CCCl)cc3)cn2C)cn1C [Compound 6, N-(N',N'-dimethylaminoethyl)-1-methyl-4-{4-[4,4-bis(2-chloroethyl)aminobenzamido]-1-methylimidazole-2-carboxamido}imidazole-2-carboxamide] | 236000 | 290-340 nm | 455000 |  |  |
| CN(C)CCNC(=O)c1nc(NC(=O)c2nc(NC(=O)c3nc(NC(=O)c4ccc(N(CCCl)CCCl)cc4)cn3C)cn2C)cn1C [Compound 7, N-(N',N'-dimethylaminoethyl)-1-methyl-4-{1-methyl-4-[4-(4,4-bis-(2-chloroethyl)aminobenzamido)-1-methylimidazole-2-carboxamido]imidazole-2-carboxamido}imidazole-2-carboxamide] | 168000 | 290-340 nm | 495000 |  |  |
| CN(C)CCNC(=O)c1nc(NC(=O)c2nc(NC(=O)c3nc(NCc4ccc(N(CCCl)CCCl)cc4)cn3C)cn2C)cn1C [Compound 8, N-(N',N'-dimethylaminoethyl)-1-methyl-4-{1-methyl-4-[4-(4,4-bis-(2-chloroethyl)aminobenzylamino)-1-methylimidazole-2-carboxamido]imidazole-2-carboxamido}imidazole-2-carboxamide] | 193000 |  | 339000 |  |  |
| CN(C)CCNC(=O)c1nc(NC(=O)c2nc(NC(=O)CCCc3ccc(N(CCCl)CCCl)cc3)cn2C)cn1C [Compound 9, N-(N',N'-dimethylaminoethyl)-1-methyl-4-{4-[4,4-bis(2-chloroethyl)aminophenyl-1-butanamido]-1-methylimidazole-2-carboxamido}imidazole-2-carboxamide] | 75000 |  | 76000 | did not produce any notable changes in the CD spectra |  |
| CN(C)CCNC(=O)c1nc(NC(=O)c2nc(NC(=O)c3nc(NC(=O)CCCc4ccc(N(CCCl)CCCl)cc4)cn3C)cn2C)cn1C [Compound 10, N-(N',N'-dimethylaminoethyl)-1-methyl-4-{1-methyl-4-[4-(4,4-bis(2-chloroethyl)aminophenyl-1-butanamido)-1-methylimidazole-2-carboxamido]imidazole-2-carboxamido}imidazole-2-carboxamide] | 19000 |  | 16000 |  | binds more strongly to GC rich sequences of DNA |
